Several values for one entry are separate records, joined by “and”; a condition that tells them apart may be missing. Identical values can stand only once. Entries after “also recorded” stand apart in the source; their conditions may differ. Counter-ions that a name gives are not always drawn.

The test system of assay [1] is patients with sleep apnea syndrome / sleeping disorder. As to the kind of experiment: Estimation of effect on chief-complaint symptoms (snore, apnea, daytime sleepiness). The class given is in vivo, human. As to conditions: for Estimation of effect: oral 10 mg/day. The protocol: (§1) Olopatadine hydrochloride was orally administered at a dose of 10 mg/day [a 5-mg tablet of Allelock (registered trademark: Kyowa Hakko Kogyo Co., Ltd.) was administered everyday, twice a day, with one tablet for each administration] to three patients (patient Nos. 1 to 3) with sleep apnea syndrome complicated by allergic rhinitis and seven patients (patient Nos. 4 to 10) with sleeping disorder which is not complicated by allergic rhinitis including four patients (patient Nos. 4 to 6 and 8) with sleep apnea syndrome which is not complicated by allergic rhinitis. Before and after the administration of olopatadine hydrochloride, an apnea-hypopnea index (AHI), an apnea index (AI) and an arousals index per hour were measured respectively by polysonography (PSG) for each patient. Further, before and after the administration of olopatadine hydrochloride, a test for daytime Epworth sleepness scale was performed according to the following.
The effect of the agent was estimated according to the following standard.
Incidentally, as objective assessment, improved conditions in values of AHI, AI, arousals index and ESS were used for reference.

For assay [2] the test system is unchanged. Kind of assay: Daytime Epworth sleepness scale (ESS) test. The class given is in vivo, human. Conditions: total of 8 conditions, 10 points or less is normal, oral 10 mg/day. The protocol:
as §1
In the following conditions 1 to 8, sleepiness was determined according to the next four levels, and seriousness of daytime sleepiness was evaluated by the total (ESS) of the points. A case in which ESS is 10 points or less is evaluated as normal.
2 points=sometimes sleeps
1. when sitting and reading a book
2. when watching television
3. when sitting in a public place without movement (for example, in a theater or a conference room) […]

The test system is the same in assay [3]. As to the kind of experiment: Polysonography (PSG) before and after administration of olopatadine hydrochloride. Conditions: for AI After therapy: apnea index by PSG; for AHI After therapy: apnea-hypopnea index by PSG; for Arousals Index After therapy: arousals index per hour by PSG. The assay is classed as in vivo, human. The protocol:
as §1
The presence or absence of allergic rhinitis was confirmed by performing RAST (radioallergosorbent test) for 12 types of antigens [house dust, Dermatophagoides pteronyssinus, Japanese cedar, Hinoki cypress, Japanese alder, ragweed, mugwort, goldenrod, Cocksfoot (Dactylis glomerata), Candida albicans, mold and animal epithelium].
The patients uncomplicated by allergic rhinitis had airway obstruction caused by non-atopic rhinitis.

For assay [4], the system named is nasal congestion reaction. Conditions: guinea pigs, experimental allergic rhinitis model, Non-patent Document 8; cited from earlier work.
For assay [5], the system named is nasal congestion of allergic rhinitis. As to conditions: Phase III test, Non-patent Document 7; cited from earlier work.
Where [6] appears, read: oral 10 mg/day, 74-160 days, one line per patient (Nos. 4-10), sleeping disorder not complicated by allergic rhinitis.
Setting [7] is: oral 10 mg/day, 160-342 days, one line per patient (Nos. 1-3), sleep apnea syndrome complicated by allergic rhinitis.

On to `CN(C)CC/C=C1/c2ccccc2COc2ccc(CC(=O)O)cc21` [olopatadine hydrochloride], for which the Estimation of effect result is “Improved; also recorded: Markedly” in assay [1] (74-160 days, one line per patient (Nos. 4-10), sleeping disorder not complicated by allergic rhinitis) and “Improved; also recorded: Markedly” in assay [1] (160-342 days, one line per patient (Nos. 1-3), sleep apnea syndrome complicated by allergic rhinitis). Besides, the “Clinical effect on symptoms of sleeping disorder” value is recorded as “improves symptoms of sleeping disorder” in assay [1] (patients with sleep apnea syndrome complicated by allergic rhinitis, snore, apnea, hypopnea, arousals, daytime sleepiness); “improves symptoms of sleeping disorder” in assay [1] (patients with sleeping disorder not complicated by allergic rhinitis, snore, apnea, hypopnea, arousals, daytime sleepiness, morning headache); “improves symptoms of sleeping disorder” in assay [1] (regardless of the presence or absence of complication by allergic rhinitis). In addition, the “ESS After therapy” value in assay [2] (74-160 days, one line per patient (Nos. 4-10), not complicated by allergic rhinitis) is 11 points and 10 points (2×) and 8 points and 9 points (2×) and 12 points; in assay [2] (160-342 days, one line per patient (Nos. 1-3), complicated by allergic rhinitis), 12 points and 11 points and 9 points. Also, the “AI After therapy” value was 3.4 and 1.2 and 3.1 and 0.8 (2×) and 0.4 and 2.8 in assay [3] (setting [6]); 4.3 and 1.5 and 7.6 in assay [3] (setting [7]). The “AHI After therapy” value in assay [3] (oral 10 mg/day (5-mg tablet twice a day), 160-342 days, one line per patient (Nos. 1-3), sleep apnea syndrome complicated by allergic rhinitis) is 5.8 and 2.7 and 11.1; in assay [3] (setting [6]) it was 4.2 and 2.6 and 4.5 and 1.3 and 0.9 and 1.8 and 3.4. In addition, the “Arousals Index After therapy” value in assay [3] (setting [6]) is 5.9 and 2.6 and 5.3 and 2.3 and 1.8 and 2.1 and 4.9; in assay [3] (setting [7]), 10.3 and 4.4 and 18.9.
In the case of `CN(C)CC/C=C1/c2ccccc2COc2ccc(CC(=O)O)cc21` [compound 1, (Z)-11-(3-dimethylaminopropylidene)-6,11-dihydrodibenzo[b,e]oxepine-2-acetic acid], in assay [4], the “Action on nasal congestion reaction” value is listed as “inhibitory action on a nasal congestion reaction”. In addition, the “Effect on nasal congestion of allergic rhinitis” value in assay [5] is “highly improve the nasal congestion of allergic rhinitis”.
